Data published in the supplement of paper PMC10307832.

Assays:
Test in all cases: relative viability (nuclei count vs DMSO), 5 days (fraction); higher = more cells survive
[1] = test system: RERF-LC-KJ
Outline: (§1)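 Relative viability equals treated-well nuclei counts divided by vehicle-well nuclei counts. Counts came from 4× images of lung cancer cell lines grown in 1536-well plates for 5 days after pin-tool dosing on the day after seeding. Dosing used one drug alone or a fixed anchor-drug dose plus five library-drug doses (not always all listed) in √10 steps, and values are medians of duplicate plates.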

[2] = test system: SK-MES-1
Outline: as §1

[3] = test system: EPLC-272H
Outline: as §1

[4] = test system: HCC-78
Outline: as §1

[5] = test system: LCLC-97TM1
Outline: as §1

[6] = test system: NCI-H1650
Outline: as §1

[7] = test system: NCI-H1563
Outline: as §1

[8] = test system: LOU-NH91
Outline: as §1

[9] = test system: NCI-H1734
Outline: as §1

[10] = test system: NCI-H2126
Outline: as §1

[11] = test system: EKVX
Outline: as §1

[12] = test system: BEN
Outline: as §1

[13] = test system: NCI-H1792
Outline: as §1

[14] = test system: HCC-827
Outline: as §1

[15] = test system: LK-2
Outline: as §1

[16] = test system: NCI-H1944
Outline: as §1

[17] = test system: NCI-H727
Outline: as §1

[18] = test system: EMC-BAC-2
Outline: as §1

[19] = test system: NCI-H358
Outline: as §1

[20] = test system: SW 1573
Outline: as §1

[21] = test system: NCI-H2087
Outline: as §1

[22] = test system: LU99A
Outline: as §1

[23] = test system: COR-L 105
Outline: as §1

CCCCCCCCCCCC1=C(O)C(=O)C=C(O)C1=O [Embelin] + CS(=O)(=O)N1CCN(Cc2cc3nc(-c4cccc5[nH]ncc45)nc(N4CCOCC4)c3s2)CC1 [Pictilisib] (partner 1 µM)
relative viability ([1]; first compound 0.08 µM): 0.494 | relative viability ([1]; first compound 0.8 µM): 0.652 | relative viability ([1]; first compound 2.53 µM): 0.618 | relative viability ([1]; first compound 8 µM): 0.587 | relative viability ([2]; first compound 0.08 µM): 0.347 | relative viability ([2]; first compound 0.8 µM): 0.421 | relative viability ([2]; first compound 2.53 µM): 0.35 | relative viability ([2]; first compound 8 µM): 0.359 | relative viability ([3]; first compound 0.08 µM): 0.319 | relative viability ([3]; first compound 0.8 µM): 0.427 | relative viability ([3]; first compound 2.53 µM): 0.334 | relative viability ([3]; first compound 8 µM): 0.276 | relative viability ([4]; first compound 0.08 µM): 0.263 | relative viability ([4]; first compound 0.8 µM): 0.216 | relative viability ([4]; first compound 2.53 µM): 0.225 | relative viability ([4]; first compound 8 µM): 0.219 | relative viability ([5]; first compound 0.8 µM): 0.21 | relative viability ([5]; first compound 2.53 µM): 0.184 | relative viability ([5]; first compound 8 µM): 0.122 | relative viability ([6]; first compound 0.08 µM): 0.695 | relative viability ([6]; first compound 0.8 µM): 0.715 | relative viability ([6]; first compound 2.53 µM): 0.632 | relative viability ([6]; first compound 8 µM): 0.504 | relative viability ([7]; first compound 0.08 µM): 0.661 | relative viability ([7]; first compound 0.8 µM): 0.786 | relative viability ([7]; first compound 2.53 µM): 0.517 | relative viability ([7]; first compound 8 µM): 0.659 | relative viability ([8]; first compound 0.08 µM): 0.543 | relative viability ([8]; first compound 0.8 µM): 0.597 | relative viability ([8]; first compound 2.53 µM): 0.552 | relative viability ([8]; first compound 8 µM): 0.459 | relative viability ([9]; first compound 0.08 µM): 0.492 | relative viability ([9]; first compound 0.8 µM): 0.547 | relative viability ([9]; first compound 2.53 µM): 0.557 | relative viability ([9]; first compound 8 µM): 0.431 | relative viability ([10]; first compound 0.08 µM): 0.482 | relative viability ([10]; first compound 0.8 µM): 0.424 | relative viability ([10]; first compound 2.53 µM): 0.523 | relative viability ([10]; first compound 8 µM): 0.467 | relative viability ([11]; first compound 0.08 µM): 0.481 | relative viability ([11]; first compound 0.8 µM): 0.437 | relative viability ([11]; first compound 2.53 µM): 0.406 | relative viability ([11]; first compound 8 µM): 0.501 | relative viability ([12]; first compound 0.08 µM): 0.583 | relative viability ([12]; first compound 0.8 µM): 0.704 | relative viability ([12]; first compound 2.53 µM): 0.743 | relative viability ([12]; first compound 8 µM): 0.556 | relative viability ([13]; first compound 0.08 µM): 0.299 | relative viability ([13]; first compound 0.8 µM): 0.37 | relative viability ([13]; first compound 2.53 µM): 0.281 | relative viability ([13]; first compound 8 µM): 0.333 | relative viability ([14]; first compound 0.08 µM): 1.03 | relative viability ([14]; first compound 0.8 µM): 1.04 | relative viability ([14]; first compound 2.53 µM): 1.16 | relative viability ([14]; first compound 8 µM): 1.19 | relative viability ([15]; first compound 0.08 µM): 0.567 | relative viability ([15]; first compound 0.8 µM): 0.578 | relative viability ([15]; first compound 2.53 µM): 0.63 | relative viability ([15]; first compound 8 µM): 0.562 | relative viability ([16]; first compound 0.08 µM): 0.367 | relative viability ([16]; first compound 0.8 µM): 0.383 | relative viability ([16]; first compound 2.53 µM): 0.36 | relative viability ([16]; first compound 8 µM): 0.306 | relative viability ([17]; first compound 0.08 µM): 0.359 | relative viability ([17]; first compound 0.8 µM): 0.526 | relative viability ([17]; first compound 2.53 µM): 0.355 | relative viability ([17]; first compound 8 µM): 0.51 | relative viability ([18]; first compound 0.08 µM): 0.498 | relative viability ([18]; first compound 0.8 µM): 0.533 | relative viability ([18]; first compound 2.53 µM): 0.442 | relative viability ([18]; first compound 8 µM): 0.476 | relative viability ([19]; first compound 0.08 µM): 0.425 | relative viability ([19]; first compound 0.8 µM): 0.39 | relative viability ([19]; first compound 2.53 µM): 0.315 | relative viability ([19]; first compound 8 µM): 0.294 | relative viability ([20]; first compound 0.08 µM): 0.475 | relative viability ([20]; first compound 0.8 µM): 0.546 | relative viability ([20]; first compound 2.53 µM): 0.555 | relative viability ([20]; first compound 8 µM): 0.527 | relative viability ([21]; first compound 0.08 µM): 0.885 | relative viability ([21]; first compound 0.8 µM): 0.96 | relative viability ([21]; first compound 2.53 µM): 1.24 | relative viability ([21]; first compound 8 µM): 0.827 | relative viability ([22]; first compound 0.08 µM): 0.393 | relative viability ([22]; first compound 0.8 µM): 0.334 | relative viability ([22]; first compound 2.53 µM): 0.357 | relative viability ([22]; first compound 8 µM): 0.281 | relative viability ([23]; first compound 0.08 µM): 0.338 | relative viability ([23]; first compound 0.8 µM): 0.484 | relative viability ([23]; first compound 2.53 µM): 0.424 | relative viability ([23]; first compound 8 µM): 0.392

CCCCCCCCCCCC1=C(O)C(=O)C=C(O)C1=O [Embelin] + C[C@@H](Oc1cc(-c2cnn(C3CCNCC3)c2)cnc1N)c1c(Cl)ccc(F)c1Cl [Crizotinib] (partner 1 µM)
relative viability ([1]; first compound 0.08 µM): 0.883 | relative viability ([1]; first compound 0.8 µM): 0.912 | relative viability ([1]; first compound 2.53 µM): 0.906 | relative viability ([1]; first compound 8 µM): 0.937 | relative viability ([2]; first compound 0.08 µM): 1.01 | relative viability ([2]; first compound 0.8 µM): 1.1 | relative viability ([2]; first compound 2.53 µM): 0.952 | relative viability ([2]; first compound 8 µM): 1.11 | relative viability ([3]; first compound 0.08 µM): 0.802 | relative viability ([3]; first compound 0.8 µM): 1.08 | relative viability ([3]; first compound 2.53 µM): 1.4 | relative viability ([3]; first compound 8 µM): 0.765 | relative viability ([4]; first compound 0.08 µM): 0.344 | relative viability ([4]; first compound 0.8 µM): 0.373 | relative viability ([4]; first compound 2.53 µM): 0.347 | relative viability ([4]; first compound 8 µM): 0.321 | relative viability ([5]; first compound 0.8 µM): 0.517 | relative viability ([5]; first compound 2.53 µM): 0.358 | relative viability ([5]; first compound 8 µM): 0.312 | relative viability ([6]; first compound 0.08 µM): 0.954 | relative viability ([6]; first compound 0.8 µM): 1.04 | relative viability ([6]; first compound 2.53 µM): 0.981 | relative viability ([6]; first compound 8 µM): 1.16 | relative viability ([7]; first compound 0.08 µM): 0.8 | relative viability ([7]; first compound 0.8 µM): 0.837 | relative viability ([7]; first compound 2.53 µM): 0.785 | relative viability ([7]; first compound 8 µM): 0.899 | relative viability ([8]; first compound 0.08 µM): 0.764 | relative viability ([8]; first compound 0.8 µM): 0.751 | relative viability ([8]; first compound 2.53 µM): 0.763 | relative viability ([8]; first compound 8 µM): 0.741 | relative viability ([9]; first compound 0.08 µM): 0.71 | relative viability ([9]; first compound 0.8 µM): 0.825 | relative viability ([9]; first compound 2.53 µM): 0.693 | relative viability ([9]; first compound 8 µM): 0.747 | relative viability ([10]; first compound 0.08 µM): 1.04 | relative viability ([10]; first compound 0.8 µM): 1.05 | relative viability ([10]; first compound 2.53 µM): 1.19 | relative viability ([10]; first compound 8 µM): 1.04 | relative viability ([11]; first compound 0.08 µM): 0.78 | relative viability ([11]; first compound 0.8 µM): 1.05 | relative viability ([11]; first compound 2.53 µM): 1.07 | relative viability ([11]; first compound 8 µM): 1.07 | relative viability ([12]; first compound 0.08 µM): 0.845 | relative viability ([12]; first compound 0.8 µM): 1.18 | relative viability ([12]; first compound 2.53 µM): 1.17 | relative viability ([12]; first compound 8 µM): 0.849 | relative viability ([13]; first compound 0.08 µM): 0.997 | relative viability ([13]; first compound 0.8 µM): 0.974 | relative viability ([13]; first compound 2.53 µM): 1.19 | relative viability ([13]; first compound 8 µM): 0.964 | relative viability ([14]; first compound 0.08 µM): 0.98 | relative viability ([14]; first compound 0.8 µM): 0.931 | relative viability ([14]; first compound 2.53 µM): 0.976 | relative viability ([14]; first compound 8 µM): 0.977 | relative viability ([15]; first compound 0.08 µM): 0.227 | relative viability ([15]; first compound 0.8 µM): 0.316 | relative viability ([15]; first compound 2.53 µM): 0.229 | relative viability ([15]; first compound 8 µM): 0.208 | relative viability ([16]; first compound 0.08 µM): 1.19 | relative viability ([16]; first compound 0.8 µM): 1.21 | relative viability ([16]; first compound 2.53 µM): 1.2 | relative viability ([16]; first compound 8 µM): 1.17 | relative viability ([17]; first compound 0.08 µM): 0.938 | relative viability ([17]; first compound 0.8 µM): 0.924 | relative viability ([17]; first compound 2.53 µM): 1.06 | relative viability ([17]; first compound 8 µM): 0.898 | relative viability ([18]; first compound 0.08 µM): 0.747 | relative viability ([18]; first compound 0.8 µM): 0.831 | relative viability ([18]; first compound 2.53 µM): 0.87 | relative viability ([18]; first compound 8 µM): 0.764 | relative viability ([19]; first compound 0.08 µM): 0.635 | relative viability ([19]; first compound 0.8 µM): 0.851 | relative viability ([19]; first compound 2.53 µM): 0.547 | relative viability ([19]; first compound 8 µM): 0.791 | relative viability ([20]; first compound 0.08 µM): 0.808 | relative viability ([20]; first compound 0.8 µM): 0.977 | relative viability ([20]; first compound 2.53 µM): 0.84 | relative viability ([20]; first compound 8 µM): 0.887 | relative viability ([21]; first compound 0.08 µM): 0.886 | relative viability ([21]; first compound 0.8 µM): 0.899 | relative viability ([21]; first compound 2.53 µM): 0.766 | relative viability ([21]; first compound 8 µM): 0.937 | relative viability ([22]; first compound 0.08 µM): 0.605 | relative viability ([22]; first compound 0.8 µM): 0.736 | relative viability ([22]; first compound 2.53 µM): 0.55 | relative viability ([22]; first compound 8 µM): 0.606 | relative viability ([23]; first compound 0.08 µM): 0.727 | relative viability ([23]; first compound 0.8 µM): 0.932 | relative viability ([23]; first compound 2.53 µM): 0.875 | relative viability ([23]; first compound 8 µM): 1.04
